The text below walks through data of patent US8067424B2, “Selective inhibitors for cyclin-dependent kinases” (Emory University, priority 2007, dated 2011).

Where two headings read alike, the source gives them in different places.

What all share (format): biochemical
The target of assay [1] is ERK2 (Homo sapiens, UniProt P28482). As to the kind of experiment: Kinase screen: MAPK2/ERK2 assay. The method, then: (§1) Generally, the same procedure was used for all assays. Since the total assay volume was 25.5 microliters, 0.5 microliters of inhibitors at 51× assay concentration were added to the plates before any other addition.
(§2) The basic procedure was to add 0.5 microliters inhibitor/control in DMSO to plate. Fifteen microliters of enzyme/substrate/buffer mix were added and incubated for 5 min. Ten microliters MgATP at the relevant concentration were added and incubated for 30 min. The assay was stopped by adding 5 microliters of 3% orthophosphoric acid. The assay was transferred to a p81 filter plate and read in a scintillation counter of 30 sec/well. Note that this assay procedure was not followed for MKK1, which instead involved a two-step assay, and PKC alpha, which required the addition of lipid vesicles.
MAPK2/ERK2 assay: MAPK/ERK2 (5-20 mU diluted in 50 mM Tris pH 7.5, 0.1 mM EGTA, 0.1 mM Na3VO4, 0.1% b-mercaptoethanol, 1 mg/ml BSA) was assayed against MBP in a final volume of 25.5 μl in 25 mM Tris pH 7.5, 0.1 mM EGTA, 0.33 mg/ml MBP, 10 mM magnesium acetate and 0.05 mM [33P-g-ATP] (500-1000 cpm/pmole) and incubated for 30 min at room temperature. Assays were stopped by addition of 5 μl of 0.5 M (3%) orthophosphoric acid and then harvested onto P81 Unifilter plates with a wash buffer of 50 mM orthophosphoric acid.

The target of assay [2] is T1, CHK1 (Homo sapiens, UniProt O14757).
T1 sequence (O14757 1-476): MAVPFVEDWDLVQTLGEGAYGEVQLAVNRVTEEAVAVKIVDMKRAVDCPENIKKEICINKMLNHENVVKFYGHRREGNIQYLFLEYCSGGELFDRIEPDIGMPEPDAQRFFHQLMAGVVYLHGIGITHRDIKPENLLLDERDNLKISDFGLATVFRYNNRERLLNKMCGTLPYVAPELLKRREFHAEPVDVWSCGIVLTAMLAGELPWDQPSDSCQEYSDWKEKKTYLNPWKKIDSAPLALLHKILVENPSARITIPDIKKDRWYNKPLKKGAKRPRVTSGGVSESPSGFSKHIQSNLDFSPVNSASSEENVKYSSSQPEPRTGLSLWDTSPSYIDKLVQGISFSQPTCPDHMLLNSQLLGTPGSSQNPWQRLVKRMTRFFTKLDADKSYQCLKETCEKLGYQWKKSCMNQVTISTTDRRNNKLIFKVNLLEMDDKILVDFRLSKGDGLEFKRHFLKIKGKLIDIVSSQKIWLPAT
As to the kind of experiment: Kinase screen: CHK1 assay. The method, then:
as §1, §2
CHK1 assay: CHK1 (5-20 mU diluted in 20 mM MOPS pH 7.5, 1 mM EDTA, 0.1% b-mercaptoethanol, 0.01% Brij-35, 5% glycerol, 1 mg/ml BSA) was assayed against CHKtide substrate peptide ([…]) (SEQ ID NO: 12) in a final volume of 25.5 μl containing 8 mM MOPS pH 7.0, 0.2 mM EDTA, 200 μM CHKtide, 10 mM magnesium acetate and 0.02 mM [33P-g-ATP] (50-1000 cpm/pmole) and incubated for 30 min at room temperature Assays were stopped by addition of 5 μl of 0.5 M (3%) orthophosphoric acid and then harvested onto P81 Unifilter plates with a wash buffer of 50 mM orthophosphoric acid.

Assay [3] concerns the target Src (Homo sapiens, UniProt P12931). Briefly: Kinase screen: Src assay. The method, then:
as §1, §2
(50-1000 cpm/pmole) and incubated for 30 min at room temperature. Assays were stopped by addition of 5 μl of 0.5 M (3%) orthophosphoric acid and then harvested onto P81 Unifilter plates with a wash buffer of 50 mM orthophosphoric acid.

Assay [4] has as its target CDK 5 (Homo sapiens, UniProt Q00535). As to the kind of experiment: CDK5 in vitro kinase inhibition (protocol similar to Example 14). To be noted: for remaining activity at 0.1 µM: 100 nM, mean of three (standard deviation), read-out: CDK5 % remaining kinase activity after incubation with 100 nM of compound; for IC50: Table 7, mean of three experiments.
Where [5] appears, read: 10 micromolar compound, read-out: mean activity remaining (as a percentage of the original activity), ERK2.
The mark [6] stands for this setting: 10 micromolar compound, read-out: mean activity remaining (as a percentage of the original activity), CHK 1.
Where [7] appears, read: 10 micromolar compound, read-out: mean activity remaining (as a percentage of the original activity), Src.

Sequence of ERK2 (P28482 whole entry, species assumed): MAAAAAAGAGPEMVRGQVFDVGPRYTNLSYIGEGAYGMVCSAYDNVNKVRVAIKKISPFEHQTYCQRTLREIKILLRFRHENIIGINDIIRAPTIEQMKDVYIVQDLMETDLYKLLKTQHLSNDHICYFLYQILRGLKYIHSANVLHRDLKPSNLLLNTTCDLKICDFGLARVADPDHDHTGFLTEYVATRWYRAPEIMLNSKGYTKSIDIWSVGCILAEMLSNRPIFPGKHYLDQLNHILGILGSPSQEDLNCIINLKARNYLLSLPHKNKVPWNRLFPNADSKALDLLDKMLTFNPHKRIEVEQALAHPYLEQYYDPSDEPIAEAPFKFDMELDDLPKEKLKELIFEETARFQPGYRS
Sequence of CDK 5 (Q00535 whole entry): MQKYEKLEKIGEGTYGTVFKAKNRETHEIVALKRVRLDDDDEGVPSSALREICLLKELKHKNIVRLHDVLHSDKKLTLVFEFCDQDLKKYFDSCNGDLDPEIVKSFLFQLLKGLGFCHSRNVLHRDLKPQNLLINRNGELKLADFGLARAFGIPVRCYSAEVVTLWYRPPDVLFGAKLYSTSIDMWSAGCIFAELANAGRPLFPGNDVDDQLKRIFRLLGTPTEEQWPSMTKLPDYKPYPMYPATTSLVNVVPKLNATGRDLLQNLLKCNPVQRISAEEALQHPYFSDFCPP
Sequence of CDK 5 (Q15078 whole entry partner): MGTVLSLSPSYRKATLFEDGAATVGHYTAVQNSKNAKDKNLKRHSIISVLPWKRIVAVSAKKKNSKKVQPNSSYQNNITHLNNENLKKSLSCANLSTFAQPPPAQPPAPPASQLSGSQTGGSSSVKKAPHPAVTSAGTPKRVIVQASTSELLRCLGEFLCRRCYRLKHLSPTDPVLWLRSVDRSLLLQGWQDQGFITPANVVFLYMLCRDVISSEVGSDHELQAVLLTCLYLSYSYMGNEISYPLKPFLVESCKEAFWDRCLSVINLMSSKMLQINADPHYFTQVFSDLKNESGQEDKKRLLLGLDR
Sequence of Src (P12931 whole entry, species assumed): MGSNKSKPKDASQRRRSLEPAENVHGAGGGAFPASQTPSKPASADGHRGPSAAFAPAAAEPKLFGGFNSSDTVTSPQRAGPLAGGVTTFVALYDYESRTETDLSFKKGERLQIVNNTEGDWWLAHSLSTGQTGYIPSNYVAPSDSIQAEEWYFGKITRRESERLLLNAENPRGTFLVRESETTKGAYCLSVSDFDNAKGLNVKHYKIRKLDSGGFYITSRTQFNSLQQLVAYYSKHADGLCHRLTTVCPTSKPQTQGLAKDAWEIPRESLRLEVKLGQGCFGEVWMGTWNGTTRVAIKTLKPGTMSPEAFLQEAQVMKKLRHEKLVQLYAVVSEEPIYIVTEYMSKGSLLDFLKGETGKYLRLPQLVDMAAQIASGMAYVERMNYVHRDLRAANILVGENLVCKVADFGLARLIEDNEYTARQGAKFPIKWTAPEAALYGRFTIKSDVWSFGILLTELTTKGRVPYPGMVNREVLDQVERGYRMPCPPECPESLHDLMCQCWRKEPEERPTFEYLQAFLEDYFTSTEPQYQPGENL

Consider `CC(C)c1cnn2c(NCc3ccccc3F)cc(NCCCCCN)nc12` [ICEC-0232], for which the “mean activity remaining (as a percentage of the original activity), ERK2” value in assay [1] (10 micromolar compound) worked out at 70%. Besides, in assay [2] (10 micromolar compound), the “mean activity remaining (as a percentage of the original activity), CHK 1” value is reported as 87%. The “mean activity remaining (as a percentage of the original activity), Src” value in assay [3] (10 micromolar compound) worked out at 96%.
The remaining activity is the signal under treatment as a percentage of the control signal. Take `CC[C@H](CO)Nc1cc(NCc2ccccc2)n2ncc(C(C)C)c2n1` [ICEC0067]: the remaining activity at 0.1 µM in assay [4] worked out at 84%. The remaining activity at 10 µM was 59% in assay [1] (setting [5]), 100% in assay [2] (setting [6]) and 90% in assay [3] (setting [7]).
With `CC(C)c1cnn2c(NCc3ccccc3)cc(NCCCCCCCN)nc12` [BS-181], the remaining activity at 10 µM stood at 86% in assay [1] (ERK2, 10 μM, read-out: Mean Remaining Enzyme Activity (%)); 80% in assay [2] (CHK1, 10 μM, read-out: Mean Remaining Enzyme Activity (%)); 88% in assay [3] (Src, 10 μM, read-out: Mean Remaining Enzyme Activity (%)).
What is called IC50 is the point on the concentration scale where inhibition reaches its midpoint. A higher IC50 goes with lower potency. `C=C[C@H](CO)Nc1cc(NCc2ccccc2)n2ncc(C(C)C)c2n1` [ICEC0065]: the remaining activity at 0.1 µM in assay [4] was 83%. The same compound came in with an IC50 in assay [4] greater than 1000 nM. The remaining activity at 10 µM in assay [1] (setting [5]) is 59%; in assay [2] (setting [6]) it was 87%; in assay [3] (setting [7]), 112%.
The corresponding values for `CC(C)c1cnn2c(NCc3ccccc3)cc(N[C@@H](CO)[C@H](O)CO)nc12` [ICEC0318, (3S)-3-(7-(Benzylamino)-3-isopropylpyrazolo[1,5-a]pyrimidin-5-ylamino)butane-1,2,4-triol] are 14%, 30 nM, 26%, 98% and 95%.
